Earlier results as cited in patent US20210315865A1 (Biohaven Therapeutics Ltd., priority 2018, published 2021).

Details: taken with meals

food effect on exposure: reduced exposure when taken with meals
Compound: Nc1nc2ccc(OC(F)(F)F)cc2s1 [riluzole, 6-(trifluoromethoxy)benzothiazol-2-amine]
